# Assay results from US10780095B2, “Compositions and methods for treating disorders of circadian and diurnal rhythms using prokineticin 2 agonists and antagonists” (THE REGENTS OF THE UNIVERSITY OF CALIFORNIA, priority 2016, dated 2020).
# Where “and” joins values, the source holds several entries; their conditions need not be identical. Identical values can stand only once.
# Legend:
# recombinant PKR1 = recombinant PKR1 (Homo sapiens (Human), UniProt Q8TCW9); test: Aequorin-based luminescent Ca2+ mobilization assay, antagonist mode, PKR1; type: cell-based; details: CHO cells stably expressing aequorin and recombinant PKR1; challenge with recombinant PK2; Ki converted from IC50 by IC50/(1+[PK2]/EC50PK2)
# Protocol: (§1) An aequorin-based luminescent assay for calcium mobilization was used to measure mobilization of intracellular Ca^2+ (Bullock et al., Mol Pharmacol 65, 582-588, 2004). Chinese hamster ovary (CHO) cells stably expressing photoprotein aequorin and recombinant PKR1 or PKR2 were tested by this method. Briefly, the cells were charged in Opti-MEM™ (Invitrogen) containing 8 μM of coelenterazine cp at 37° C. for 2 hours. Cells were detached by brief trypsinization and maintained in Hank's Balanced Salt Solution (HBSS) plus 10 mM HEPES (pH7.5) and 0.1% BSA at about 5×10^5 cells/ml. Luminescence measurements were made using a Berthold luminometer.
# (§2) All compounds were diluted in HBSS plus 10 mM HEPES (pH7.5) and 0.1% BSA. To test the agonist activity, 100 μl of cells were injected into the tubes with 20 μl of compounds. For antagonist assays, 80 μl cells were incubated in the tubes with 20 μl different concentrations of antagonists at room temperature for 20 minutes, and then 100 μl of recombinant PK2 were injected. The IC50 obtained from the assays were then converted to Ki values using the formula: IC50/(1+[PK2]/EC50PK2).
# recombinant PKR2 = recombinant PKR2 (Homo sapiens (Human), UniProt Q8NFJ6); test: Aequorin-based luminescent Ca2+ mobilization assay, antagonist mode, PKR2; type: cell-based; details: CHO cells stably expressing aequorin and recombinant PKR2; challenge with recombinant PK2; Ki converted from IC50 by IC50/(1+[PK2]/EC50PK2)
# Protocol: as §1, §2
# mice [1] = test: Locomotor activity in mice after PK2 antagonist; type: in vivo
# monkeys = test: Sleep time in monkeys (wireless sleep tracker) after PK2 antagonist; type: in vivo, Macaca fascicularis
# mice [2] = test: Arousal level (EEG/EMG wake time) in mice after PK2 antagonist; type: in vivo
# Chain of recombinant PKR1 (Q8TCW9 whole entry): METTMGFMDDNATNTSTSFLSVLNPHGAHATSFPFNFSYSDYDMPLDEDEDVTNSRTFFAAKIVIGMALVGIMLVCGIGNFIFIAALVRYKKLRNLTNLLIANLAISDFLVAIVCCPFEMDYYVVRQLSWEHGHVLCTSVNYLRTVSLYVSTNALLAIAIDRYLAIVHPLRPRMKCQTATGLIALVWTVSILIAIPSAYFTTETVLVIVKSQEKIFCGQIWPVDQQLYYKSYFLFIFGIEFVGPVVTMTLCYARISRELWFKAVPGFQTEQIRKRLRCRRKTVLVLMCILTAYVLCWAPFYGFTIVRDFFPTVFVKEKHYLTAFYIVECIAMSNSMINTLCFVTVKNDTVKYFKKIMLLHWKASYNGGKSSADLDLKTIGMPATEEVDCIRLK
# Chain of recombinant PKR2 (Q8NFJ6 whole entry): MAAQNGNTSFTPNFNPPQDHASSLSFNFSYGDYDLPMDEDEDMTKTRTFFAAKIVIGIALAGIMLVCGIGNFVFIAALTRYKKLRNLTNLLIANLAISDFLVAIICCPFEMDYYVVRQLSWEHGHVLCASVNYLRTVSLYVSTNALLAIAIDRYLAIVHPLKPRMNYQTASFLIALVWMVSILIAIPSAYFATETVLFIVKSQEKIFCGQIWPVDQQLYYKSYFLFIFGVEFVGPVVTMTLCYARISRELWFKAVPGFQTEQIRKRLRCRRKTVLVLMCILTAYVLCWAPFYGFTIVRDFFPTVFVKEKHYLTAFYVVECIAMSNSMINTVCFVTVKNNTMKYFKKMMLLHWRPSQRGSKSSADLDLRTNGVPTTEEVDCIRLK
SMILES,Ki (recombinant PKR1),other results
"CC(C)CN(Cc1cc(Cl)c2c(c1)OCCCO2)C(=O)C(C)CNCc1cccc2nc[nH]c12 (racemic) [(±)-2-Methyl-3-(benzimidazol-4-ylmethylamino)-N-(9-chloro-3,4-dihydro-2H-1,5-benzodioxepin-7-ylmethyl)-N-isobutylpropanamide]",5.6 nM,Ki (recombinant PKR2): 2.1 nM
"COc1cc(CN2CCO[C@@H](C(=O)N(Cc3cc(Cl)c4c(c3)OCCCO4)CC(C)C)C2)c(F)cc1F [(−)-(2R)-1-(4,6-Difluoro-3-methoxybenzyl)-N-(9-chloro-3,4-dihydro-2H-1,5-benzodioxepin-7-ylmethyl)-N-isobutylmorpholine-2-carboxamide]",4.09 nM,
"COc1cc(F)ccc1CN1CCO[C@@H](C(=O)N(Cc2cc(Cl)c3c(c2)OCCCO3)CC(C)C)C1 [(−)-(2R)-1-(4-Fluoro-2-methoxybenzyl)-N-(9-chloro-3,4-dihydro-2H-1,5-benzodioxepin-7-ylmethyl)-N-isobutylmorpholine-2-carboxamide]",7.3 nM,
"COc1ccc(F)cc1CN1CCO[C@@H](C(=O)N(Cc2cc(Cl)c3c(c2)OCCCO3)CC(C)C)C1 [(−)-(2R)-1-(5-Fluoro-2-methoxybenzyl)-N-(9-chloro-3,4-dihydro-2H-1,5-benzodioxepin-7-ylmethyl)-N-isobutylmorpholine-2-carboxamide]",7.3 nM,
"COc1ccc(F)c(CN2CCO[C@@H](C(=O)N(Cc3cc(Cl)c4c(c3)OCCCO4)CC(C)C)C2)c1 [(−)-(2R)-1-(6-Fluoro-3-methoxybenzyl)-N-(9-chloro-3,4-dihydro-2H-1,5-benzodioxepin-7-ylmethyl)-N-isobutylmorpholine-2-carboxamide]",10 nM,
"CC(C)CN(Cc1cc(Cl)c2c(c1)OCCCO2)C(=O)[C@H](C)CNCc1cccc2nc[nH]c12 [(−)-(2R)-2-Methyl-3-(benzimidazol-4-ylmethylamino)-N-(9-chloro-3,4-dihydro-2H-1,5-benzodioxepin-7-ylmethyl)-N-isobutylpropanamide]",3.5 nM and 4.2 nM,
"COc1c(F)cccc1CN1CC[C@@H](C(=O)N(Cc2cc(Cl)c3c(c2)OCCCO3)CC(C)C)C1 [(−)-(3R)-1-(3-Fluoro-2-methoxybenzyl)-N-(9-chloro-3,4-dihydro-2H-1,5-benzodioxepin-7-ylmethyl)-N-isobutylpyrrolidine-3-carboxamide]",170 nM,
"COc1cc(CN2CCC[C@@H](C(=O)N(Cc3cc(Cl)c4c(c3)OCCCO4)CC(C)C)C2)c(F)cc1F [(−)-(3R)-1-(4,6-Difluoro-3-methoxybenzyl)-N-(9-chloro-3,4-dihydro-2H-1,5-benzodioxepin-7-ylmethyl)-N-isobutylpiperidine-3-carboxamide]",13.8 nM,
"COc1cc(F)ccc1CN1CC[C@@H](C(=O)N(Cc2cc(Cl)c3c(c2)OCCCO3)CC(C)C)C1 [(−)-(3R)-1-(4-Fluoro-2-methoxybenzyl)-N-(9-chloro-3,4-dihydro-2H-1,5-benzodioxepin-7-ylmethyl)-N-isobutylpyrrolidine-3-carboxamide]",9.32 nM,
"COc1ccc(F)c(CN2CC[C@@H](C(=O)N(Cc3cc(Cl)c4c(c3)OCCCO4)CC(C)C)C2)c1 [(−)-(3R)-1-(6-Fluoro-3-methoxybenzyl)-N-(9-chloro-3,4-dihydro-2H-1,5-benzodioxepin-7-ylmethyl)-N-isobutylpyrrolidine-3-carboxamide]",301 nM,
"CC(C)CN(Cc1cc(Cl)c2c(c1)OCCCO2)C(=O)[C@@H]1CCN(Cc2cccc3nc[nH]c23)C1 [(−)-(3R)-1-(benzimidazol-4-ylmethyl)-N-(9-chloro-3,4-dihydro-2H-1,5-benzodioxepin-7-ylmethyl)-N-isobutylpyrrolidine-3-carboxamide]",2.6 nM,Ki (recombinant PKR2): 1.7 nM
"COc1cc(CN2CC[C@@H](C(=O)N(Cc3cc(Cl)c4c(c3)OCCCO4)CC(C)C)C2)ccc1F [PKRA83, (3R)-1-(4-Fluoro-3-methoxybenzyl)-N-(9-chloro-3,4-dihydro-2H-1,5-benzodioxepin-7-ylmethyl)-N-isobutylpyrrolidine-3-carb oxamide]",,"locomotor activity (mice [1]; mice, 40 mg/kg intraperitoneally at ZT6, vs vehicle (FIG. 6A)): significantly increased; locomotor activity (mice [1]; wild type mice, ocular topic delivery during the late night, vs control (FIG. 13)): increased; increase of the sleep time (monkeys; 10 mg/kg intramuscularly at ZT10, vs vehicle (FIG. 6C)): > 70 min; sleep time (monkeys; nasal topic application, P<0.05 paired t-test (FIG. 19)): significantly increased; sleep time (monkeys; ocular topic application, P<0.05 paired t-test (FIG. 15)): significantly increased; wakefulness (wake time) (mice [2]; 40 mg/kg intraperitoneally at ZT6, vs vehicle (FIG. 6B)): significantly increased; wake time (mice [2]; ocular topic application at day time, P<0.05 paired t-test (FIG. 14)): significantly increased"

# More lines, main results first:
Ki (recombinant PKR1),SMILES,other results
4.4 nM,"CC(C)CN(Cc1cc(Cl)c2c(c1)OCCCO2)C(=O)C(C)CNCc1ccc(F)c(O)c1 (racemic) [(±)-2-Methyl-3-((3-hydroxy-4-fluoro)benzylamino)-N-(9-chloro-3,4-dihydro-2H-1,5-benzodioxepin-7-ylmethyl)-N-isobutylpropanamide]",
43.5 nM,"COc1cc(CNCC(C)C(=O)N(Cc2cc(Cl)c3c(c2)OCCCO3)CC(C)C)c(F)cc1F (racemic) [(±)-2-Methyl-3-((3-methoxy-4,6-difluoro)benzylamino)-N-(9-chloro-3,4-dihydro-2H-1,5-benzodioxepin-7-ylmethyl)-N-isobutylpropanamide]",
1.49 nM,"COc1ccccc1CN1CCO[C@@H](C(=O)N(Cc2cc(Cl)c3c(c2)OCCCO3)CC(C)C)C1 [(−)-(2R)-1-(2-Methoxybenzyl)-N-(9-chloro-3,4-dihydro-2H-1,5-benzodioxepin-7-ylmethyl)-N-isobutylmorpholine-2-carboxamide]",
2.5 nM,"COc1cccc(CN2CCO[C@@H](C(=O)N(Cc3cc(Cl)c4c(c3)OCCCO4)CC(C)C)C2)c1 [(−)-(2R)-1-(3-Methoxybenzyl)-N-(9-chloro-3,4-dihydro-2H-1,5-benzodioxepin-7-ylmethyl)-N-isobutylmorpholine-2-carboxamide]",
2.6 nM and 5.4 nM,"COc1cc(CN2CCO[C@@H](C(=O)N(Cc3cc(Cl)c4c(c3)OCCCO4)CC(C)C)C2)ccc1F [(−)-(2R)-1-(4-Fluoro-3-methoxybenzyl)-N-(9-chloro-3,4-dihydro-2H-1,5-benzodioxepin-7-ylmethyl)-N-isobutylmorpholine-2-carboxamide]",Ki (recombinant PKR2): 1.9 nM
6.14 nM,"CC(C)CN(Cc1cc(Cl)c2c(c1)OCCCO2)C(=O)[C@H]1CN(Cc2cc(F)cc3nc[nH]c23)CCO1 [(−)-(2R)-1-(5-fluro-benzimidazol-4-ylmethyl)-N-(9-chloro-3,4-dihydro-2H-1,5-benzodioxepin-7-ylmethyl)-N-isobutylmorpholine-2-carboxamide]",
6.14 nM,"COc1cc(CN2CC[C@@H](C(=O)N(Cc3cc(Cl)c4c(c3)OCCCO4)CC(C)C)C2)c(F)cc1F [(−)-(3R)-1-(4,6-Difluoro-3-methoxybenzyl)-N-(9-chloro-3,4-dihydro-2H-1,5-benzodioxepin-7-ylmethyl)-N-isobutylpyrrolidine-3-carboxamide]",
107 nM,"CC(C)CN(Cc1cc(Cl)c2c(c1)OCCCO2)C(=O)[C@@H]1CCN(Cc2ccc(F)c(O)c2)C1 [(−)-(3R)-1-(4-Fluoro-3-hydroxybenzyl)-N-(9-chloro-3,4-dihydro-2H-1,5-benzodioxepin-7-ylmethyl)-N-isobutylpyrrolidine-3-carboxamide]",
9.3 nM and 6.9 nM,"COc1ccc(F)cc1CN1CC[C@@H](C(=O)N(Cc2cc(Cl)c3c(c2)OCCCO3)CC(C)C)C1 [(−)-(3R)-1-(5-Fluoro-2-methoxybenzyl)-N-(9-chloro-3,4-dihydro-2H-1,5-benzodioxepin-7-ylmethyl)-N-isobutylpyrrolidine-3-carboxamide]",
71.3 nM,"CC(C)CN(Cc1cc(Cl)c2c(c1)OCCCO2)C(=O)[C@@H]1CCN(Cc2cc(F)cc3nc[nH]c23)C1 [(−)-(3R)-1-(5-fluro-benzimidazol-4-ylmethyl)-N-(9-chloro-3,4-dihydro-2H-1,5-benzodioxepin-7-ylmethyl)-N-isobutylpyrrolidine-3-carboxamide]",
97 nM,"CC(C)CN(Cc1cc(Cl)c2c(c1)OCCCO2)C(=O)[C@@H]1CCCN(Cc2cccc3nc[nH]c23)C1 [(−)-(3R)-1-(benzimidazol-4-ylmethyl)-N-(9-chloro-3,4-dihydro-2H-1,5-benzodioxepin-7-ylmethyl)-N-isobutylpiperidine-3-carboxamide]",Ki (recombinant PKR2): 3 nM
